{
  "source": "patent US8906826B2",
  "about": "“Herbicidal compositions comprising 4-amino-3-chloro-5-fluoro-6-(4-chloro-2-fluoro-3-methoxyphenyl) pyridine-2-carboxylic acid or a derivative thereof and imidazolinones” (Dow AgroSciences, LLC, priority 2012, dated 2014)",
  "key": {"[1]": {"system": "CYPES", "test": "Postemergence foliar-applied, direct seeded rice weeds (Example I)", "format": "in vivo, Cyperus esculentus L.", "source_text": "(§1) Seeds or nutlets of the desired test plant species were planted in a soil matrix prepared by mixing a loam or sandy loam soil (e.g., 28.6 percent silt, 18.8 percent clay, and 52.6 percent sand, with a pH of about 5.8 and an organic matter content of about 1.8 percent) and calcareous grit in an 80 to 20 ratio. The soil matrix was contained in plastic pots with a volume of 1 quart and a surface area of 83.6 cm^2. When required to ensure good germination and healthy plants, a fungicide treatment and/or other chemical or physical treatment was applied. The plants were grown for 8-22 days in a greenhouse with an approximate 14 h photoperiod which was maintained at about 29° C. during the day and 26° C. during the night. Nutrients (Peters Excel® 15-5-15 5-Ca 2-Mg and iron chelate) were applied in the irrigation solution as needed and water was added on a regular basis. Supplemental lighting was provided with overhead metal halide 1000-Watt lamps as necessary. The plants were employed for testing when they reached the first through fourth true leaf stage.\n(§2) Treatments consisted of the acid or esters of 4-amino-3-chloro-5-fluoro-6-(4-chloro-2-fluoro-3-methoxy-phenyl)pyridine-2-carboxylic acid (Compound A), each formulated as an SC (suspension concentrate), and various herbicidal components alone and in combination. Forms of compound A were applied on an acid equivalent basis.\n(§3) Other herbicidal components were applied on an acid equivalent basis and include acetolactate synthase (ALS)-inhibiting herbicides (imidazolinone chemical class) imazethapyr ammonium salt formulated as Newpath®, imazamox ammonium salt formulated as Beyond®, imazapic ammonium salt formulated as Plateau®, imazapyr isopropylamine salt formulated as Arsenal®, imazamethabenz-methyl (technical material) and imazaquin isopropylamine salt formulated as Scepter®/Imagine®.\n(§4) Treatment requirements were calculated based upon the rates being tested, the concentration of active ingredient or acid equivalent in the formulation, and a 12 mL application volume at a rate of 187 L/ha.\n(§5) For treatments comprised of formulated compounds, measured amounts of compounds were placed individually in 25 mL glass vials and diluted in a volume of 1.25% (v/v) Agri-Dex® crop oil concentrated to obtain 12× stock solutions. […] Application solutions were prepared by adding an appropriate amount of each stock solution (e.g., 1 mL) and diluted to the appropriate final concentrations with the addition of 10 mL of an aqueous mixture of 1.25% (v/v) crop oil concentrate so that the final spray solutions contained 1.25+/−0.05% (v/v) crop oil concentrate.\n(§6) For treatments comprised of technical compounds, weighed amounts can be placed individually in 25 mL glass vials and dissolved in a volume of 97:3 v/v acetone/DMSO to obtain 12× stock solutions. […] Application solutions can be prepared by adding an appropriate amount of each stock solution (e.g., 1 mL) and diluted to the appropriate final concentrations with the addition of 10 mL of an aqueous mixture of 1.5% (v/v) crop oil concentrate so that the final spray solutions contain 1.25% (v/v) crop oil concentrate. When technical materials are used, the concentrated stock solutions can be added to the spray solutions so that the final acetone and DMSO concentrations of the application solutions are 16.2% and 0.5%, respectively.\n(§7) For treatments comprised of formulated and technical compounds, weighed amounts of the technical materials were placed individually in 25 mL glass vials and dissolved in a volume of 97:3 v/v acetone/DMSO to obtain 12× stock solutions, and measured amounts of the formulated compounds were placed individually in 25 mL glass vials and diluted in a volume of 1.5% (v/v) crop oil concentrate or water to obtain 12× stock solutions. […]"}, "[2]": {"system": "ECHCG", "test": "Postemergence foliar-applied, direct seeded rice weeds (Example I)", "format": "in vivo, Echinochloa crusgalli (L.) Beauv.", "source_text": "as §1, §2, §3, §4, §5, §6, §7"}, "[3]": {"system": "CENMA", "test": "Postemergence herbicidal activity in forage crops (Example IV)", "format": "in vivo, Centaurea biebersteinii DC.", "conditions": "after approximately 21 days", "experimental": "Seeds or root cuttings of the desired test plant species were planted in Sun Gro MetroMix® 306 planting mixture, which typically has a pH of about 6.0 to about 6.8 and an organic matter content of about 30 percent, in plastic pots with a surface area of 126.6 square centimeters (cm^2). When required to ensure good germination and healthy plants, a fungicide treatment and/or other chemical or physical treatment was applied. The plants were grown for 14-60 days in a greenhouse with an approximate 14 hour photoperiod which was maintained at about 28° C. during the day and about 24° C. during the night. Nutrients and water were added on a regular basis and supplemental lighting was provided with overhead metal halide 1000-Watt lamps as necessary. The plants were employed for testing when they reached the BBCH13 to BBCH23 leaf stage.\nTreatments consisted of the benzyl ester of 4-amino-3-chloro-5-fluoro-6-(4-chloro-2-fluoro-3-methoxy-phenyl)pyridine-2-carboxylic acid (Compound A), formulated as a SC (suspension concentrate), and a second herbicide alone and in combination.\nA measured aliquot of Compound A was placed in a 25 milliliter (mL) glass vial and diluted in a volume of 1.25% (v/v) Agri-Dex® crop oil concentrate to obtain stock solutions. Compound requirements are based upon a 12 mL application volume at a rate of 187 liters per hectare (L/ha). Spray solutions of the second cereal herbicide and experimental compound mixtures were prepared by adding the stock solutions to the appropriate amount of dilution solution to form 12 mL spray solution with active ingredients in two- and three-way combinations. Formulated compounds were applied to the plant material with an overhead Mandel track sprayer equipped with an 8002E nozzle calibrated to deliver 187 L/ha over an application area of 0.503 square meters (m^2) at a spray height of 18 inches (46 cm) above average plant canopy. Control plants were sprayed in the same manner with the solvent blank.\nThe treated plants and control plants were placed in a greenhouse as described above and watered by sub-irrigation to prevent wash-off of the test compounds. After approximately 21 days, the condition of the test plants, as compared with that of the control plants, was determined visually and scored on a scale of 0 to 100 percent where 0 corresponds to no injury and 100 corresponds to complete kill.\nColby's equation was used to determine the herbicidal effects expected from the mixtures (Colby, S. R. 1967. Calculation of the synergistic and antagonistic response of herbicide combinations. Weeds 15:20-22.).\nThe following equation was used to calculate the expected activity of mixtures containing two active ingredients, A and B: Expected=A+B−(A×B/100)"}, "[4]": {"system": "IPOHE", "test": "Postemergence foliar-applied, direct seeded rice weeds (Example I)", "format": "in vivo, Ipomoea hederacea Jacq.", "source_text": "as §1, §2, §3, §4, §5, §6, §7"}, "[5]": {"conditions": "Compound A Benzyl Ester 4.38 gae/ha"}, "[6]": {"conditions": "Compound A Benzyl Ester 8.75 gae/ha"}, "[7]": {"conditions": "Compound A Benzyl Ester 17.5 gae/ha"}},
  "data": [
    {"smiles": "COCc1cnc(C2=NC(C)(C(C)C)C(=O)N2)c(C(=O)O)c1.N", "note": "(racemic) [Imazamox ammonium, ammonium (±)-2-[4,5-dihydro-4-methyl-4-(1-methylethyl)-5-oxo-1H-imidazol-2-yl]-5-(methoxymethyl)-3-pyridinecarboxylate]", "values": [
      {"measurement": "Visual Weed Control (%) - 25 DAA CYPES Obs", "setting": "[1]; Imazamox ammonium 5.6 gae/ha", "result": 0, "unit": "%"},
      {"measurement": "Visual Weed Control (%) - 25 DAA CYPES Obs", "setting": "[1]; Imazamox ammonium 11.2 gae/ha", "result": 0, "unit": "%"},
      {"measurement": "Visual Weed Control (%) - 25 DAA CYPES Obs", "setting": "[1]; Imazamox ammonium 22.4 gae/ha", "result": 20, "unit": "%"},
      {"measurement": "Visual Weed Control (%) - 25 DAA ECHCG Obs", "setting": "[2]; Imazamox ammonium 5.6 gae/ha", "result": 15, "unit": "%"},
      {"measurement": "Visual Weed Control (%) - 25 DAA ECHCG Obs", "setting": "[2]; Imazamox ammonium 11.2 gae/ha", "result": 20, "unit": "%"},
      {"measurement": "Visual Weed Control (%) - 25 DAA ECHCG Obs", "setting": "[2]; Imazamox ammonium 22.4 gae/ha", "result": 60, "unit": "%"}
    ]},
    {"smiles": "CCc1cnc(C2=NC(C)(C(C)C)C(=O)N2)c(C(=O)O)c1.N", "note": "(racemic) [Imazethapyr ammonium, ammonium (±)-2-[4,5-dihydro-4-methyl-4-(1-methylethyl)-5-oxo-1H-imidazol-2-yl]-5-ethyl-3-pyridinecarboxylate]", "values": [
      {"measurement": "Visual Weed Control (%) - 25 DAA CYPES Obs", "setting": "[1]; Imazethapyr ammonium 8.75 gae/ha", "result": 0, "unit": "%"}
    ]},
    {"smiles": "Cc1cnc(C2=NC(C)(C(C)C)C(=O)N2)c(C(=O)O)c1.N", "note": "(racemic) [Imazapic ammonium, ammonium (±)-2-[4,5-dihydro-4-methyl-4-(1-methylethyl)-5-oxo-1H-imidazol-2-yl]-5-methyl-3-pyridinecarboxylic acid]", "values": [
      {"measurement": "Visual Weed Control (%) - 25 DAA ECHCG Obs", "setting": "[2]; Imazapic ammonium 4.38 gae/ha", "result": 20, "unit": "%"},
      {"measurement": "Visual Weed Control (%) - 25 DAA ECHCG Obs", "setting": "[2]; Imazapic ammonium 8.75 gae/ha", "result": 40, "unit": "%"},
      {"measurement": "CENMA Obs", "setting": "[3]; Imazapic ammonium 8.75 gae/ha", "result": 0, "unit": "%"},
      {"measurement": "CENMA Obs", "setting": "[3]; Imazapic ammonium 17.5 gae/ha", "result": 0, "unit": "%"}
    ]},
    {"smiles": "COc1c(Cl)ccc(-c2nc(C(=O)O)c(Cl)c(N)c2F)c1F", "note": "[Compound A Acid, 4-amino-3-chloro-6-(4-chloro-2-fluoro-3-methoxyphenyl)-5-fluoropyridine-2-carboxylic acid]", "values": [
      {"measurement": "Visual Weed Control (%) - 25 DAA CYPES Obs", "setting": "[1]; Compound A Acid 4.38 gae/ha", "result": 50, "unit": "%"},
      {"measurement": "Visual Weed Control (%) - 25 DAA ECHCG Obs", "setting": "[2]; Compound A Acid 4.38 gae/ha", "result": 20, "unit": "%"},
      {"measurement": "Visual Weed Control (%) - 25 DAA ECHCG Obs", "setting": "[2]; Compound A Acid 8.75 gae/ha", "result": 50, "unit": "%"},
      {"measurement": "Visual Weed Control (%) - 21 DAA IPOHE Obs", "setting": "[4]; Compound A Acid 4.38 gae/ha", "result": 0, "unit": "%"},
      {"measurement": "Visual Weed Control (%) - 21 DAA IPOHE Obs", "setting": "[4]; Compound A Acid 8.75 gae/ha", "result": 10, "unit": "%"},
      {"measurement": "Visual Weed Control (%) - 21 DAA IPOHE Obs", "setting": "[4]; Compound A Acid 17.5 gae/ha", "result": 30, "unit": "%"}
    ]},
    {"smiles": "COc1c(Cl)ccc(-c2nc(C(=O)OCc3ccccc3)c(Cl)c(N)c2F)c1F", "note": "[Compound A Benzyl Ester, benzyl ester of 4-amino-3-chloro-5-fluoro-6-(4-chloro-2-fluoro-3-methoxy-phenyl)pyridine-2-carboxylic acid]", "values": [
      {"measurement": "Visual Weed Control (%) - 25 DAA CYPES Obs", "setting": "[1]; [5]", "result": 70, "unit": "%"},
      {"measurement": "Visual Weed Control (%) - 25 DAA CYPES Obs", "setting": "[1]; [6]", "result": 90, "unit": "%"},
      {"measurement": "Visual Weed Control (%) - 25 DAA CYPES Obs", "setting": "[1]; [7]", "result": 85, "unit": "%"},
      {"measurement": "Visual Weed Control (%) - 21 DAA IPOHE Obs", "setting": "[4]; [5]", "result": 0, "unit": "%"},
      {"measurement": "Visual Weed Control (%) - 21 DAA IPOHE Obs", "setting": "[4]; [6]", "result": 10, "unit": "%"},
      {"measurement": "Visual Weed Control (%) - 21 DAA IPOHE Obs", "setting": "[4]; [7]", "result": 25, "unit": "%"},
      {"measurement": "CENMA Obs", "setting": "[3]; Compound A Benzyl Ester 4.4 gae/ha", "result": 70, "unit": "%"},
      {"measurement": "CENMA Obs", "setting": "[3]; Compound A Benzyl Ester 8.8 gae/ha", "result": 85, "unit": "%"},
      {"measurement": "CENMA Obs", "setting": "[3]; [7]", "result": 95, "unit": "%"}
    ]}
  ]
}
